Measurements published in ChEMBL document CHEMBL4420066, “Aryl amine substituted quinoxaline used as anticancer drugs” (2017).
Calls of active or inactive are those of the source. The rule behind the calls is not given here.

Tests used:
Hep 3B2 [1] = test: Inhibition of PP2A-B5 protein expression in human Hep3B cells at 1 uM incubated for 24 hrs by Western blotting analysis; assay type: functional, cell-based
Homo sapiens [2] = species on record: Homo sapiens; test: Induction of apoptosis in human PLC5 cells with ectopic overexpression of GFP-tagged Elk-1 at 2 uM incubated for 24 hrs by annexin-V-FITC staining based by flow cytometry; assay type: functional, cell-based
[3] = target: T1, Serine/threonine-protein kinase AKT (Homo sapiens) (UniProt P31751+Q9Y243+P31749); test: Inhibition of Akt phosphorylation at S473 residue in human PLC5 cells at 2 uM incubated for 24 hrs in presence of 100 nM PP2A inhibitor okadaic acid by Western blotting analysis; assay type: cell-based
T1 sequence (P31749 whole entry, looked up): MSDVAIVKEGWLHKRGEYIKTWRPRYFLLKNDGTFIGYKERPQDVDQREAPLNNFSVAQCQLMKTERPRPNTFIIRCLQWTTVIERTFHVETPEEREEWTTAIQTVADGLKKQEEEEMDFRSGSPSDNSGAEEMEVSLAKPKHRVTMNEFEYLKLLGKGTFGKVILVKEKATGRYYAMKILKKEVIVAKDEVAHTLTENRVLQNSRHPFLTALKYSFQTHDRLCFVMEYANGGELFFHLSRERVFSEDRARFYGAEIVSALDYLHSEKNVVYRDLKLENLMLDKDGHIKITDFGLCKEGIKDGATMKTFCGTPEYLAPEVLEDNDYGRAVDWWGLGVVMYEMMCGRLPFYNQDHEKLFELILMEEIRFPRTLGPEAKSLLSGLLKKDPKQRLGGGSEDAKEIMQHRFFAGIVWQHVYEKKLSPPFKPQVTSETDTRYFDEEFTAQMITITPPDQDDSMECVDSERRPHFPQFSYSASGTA
T1 sequence (P31751 whole entry, looked up): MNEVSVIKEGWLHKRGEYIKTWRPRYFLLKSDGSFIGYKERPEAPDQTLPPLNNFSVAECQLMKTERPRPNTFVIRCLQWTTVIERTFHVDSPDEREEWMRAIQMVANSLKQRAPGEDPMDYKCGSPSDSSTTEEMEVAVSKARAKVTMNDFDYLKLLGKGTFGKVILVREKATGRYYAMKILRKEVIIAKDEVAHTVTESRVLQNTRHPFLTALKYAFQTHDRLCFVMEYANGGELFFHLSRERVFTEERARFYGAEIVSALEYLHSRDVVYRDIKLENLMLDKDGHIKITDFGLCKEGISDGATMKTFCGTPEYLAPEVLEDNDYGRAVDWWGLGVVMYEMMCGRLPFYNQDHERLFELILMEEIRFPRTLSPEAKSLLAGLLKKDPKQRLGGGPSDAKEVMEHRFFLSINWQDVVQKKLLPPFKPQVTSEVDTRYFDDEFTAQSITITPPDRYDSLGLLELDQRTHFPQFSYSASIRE
T1 sequence (Q9Y243 whole entry, looked up): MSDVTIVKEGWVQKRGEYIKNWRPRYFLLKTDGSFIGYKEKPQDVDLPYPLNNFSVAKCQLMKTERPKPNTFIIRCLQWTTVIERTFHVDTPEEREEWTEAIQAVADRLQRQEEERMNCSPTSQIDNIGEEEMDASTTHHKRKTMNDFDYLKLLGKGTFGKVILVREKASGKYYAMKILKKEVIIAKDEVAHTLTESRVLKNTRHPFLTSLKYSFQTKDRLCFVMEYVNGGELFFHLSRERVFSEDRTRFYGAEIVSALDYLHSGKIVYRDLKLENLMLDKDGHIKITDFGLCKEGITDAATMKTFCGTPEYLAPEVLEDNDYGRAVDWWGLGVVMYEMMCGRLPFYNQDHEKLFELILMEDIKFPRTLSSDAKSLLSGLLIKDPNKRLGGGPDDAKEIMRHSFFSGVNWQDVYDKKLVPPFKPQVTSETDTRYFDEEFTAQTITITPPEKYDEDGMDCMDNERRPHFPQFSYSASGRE

Homo sapiens [4] = species on record: Homo sapiens; test: Activation of PP2A in human PLC5 cells assessed as increase in protein phosphatase activity at 1 uM incubated for 24 hrs using phosphopeptide substrate incubated for 10 mins by malachite green-phosphate complex assay; assay type: cell-based
Homo sapiens [5] = species on record: Homo sapiens; test: Induction of apoptosis in human PLC5 cells assessed as accumulation at subG1 phase at 0.5 to 4 uM by flow cytometry; assay type: functional, cell-based
Homo sapiens [6] = species on record: Homo sapiens; test: Activation of PP2A in human HA22T cells assessed as minimal concentration causing increase in protein phosphatase activity incubated for 24 hrs using phosphopeptide substrate incubated for 10 mins by malachite green-phosphate complex assay; assay type: cell-based
Homo sapiens [7] = species on record: Homo sapiens; test: Induction of apoptosis in human PLC5 cells at 2 uM incubated for 24 hrs in presence of PP2A-C siRNA by annexin-V-FITC staining based by flow cytometry; assay type: functional, cell-based
SK-HEP1 [8] = test: Induction of apoptosis in human SKHEP1 cells assessed as accumulation at subG1 phase at 0.5 to 4 uM by flow cytometry; assay type: functional, cell-based
[9] = target: T1, Serine/threonine-protein kinase AKT (Homo sapiens); test: Inhibition of Akt phosphorylation at S473 residue in human PLC5 cells by Western blotting analysis; assay type: cell-based
SK-HEP1 [10] = test: Induction of apoptosis in human SKHEP1 cells assessed as caspase-3 activation at 0.5 to 4 uM incubated for 48 hrs by Western blotting analysis; assay type: functional, cell-based
SK-HEP1 [11] = test: Induction of apoptosis in human SKHEP1 cells assessed as caspase-9 activation at 0.5 to 4 uM incubated for 48 hrs by Western blotting analysis; assay type: functional, cell-based
Homo sapiens [12] = species on record: Homo sapiens; test: Induction of apoptosis in human PLC5 cells assessed as induction of PARP cleavage at 0.5 to 4 uM incubated for 48 hrs by Western blotting analysis; assay type: functional, cell-based
Homo sapiens [13] = species on record: Homo sapiens; test: Inhibition of His-tagged recombinant human SET1 protein (1 to 290 amino acids) expressed in Escherichia coli interaction with N-terminal GST-tagged recombinant human PP2A-C (1 to 309 amino acids) assessed as minimal concentration causing disruption of SET-PP2Ac binding by SPR assay
Homo sapiens [14] = species on record: Homo sapiens; test: Inhibition of PP2A-B5 protein expression in human PLC5 cells at 1 uM incubated for 24 hrs by Western blotting analysis; assay type: functional, cell-based
HA22T cell line [15] = test: Inhibition of PP2A-B5 protein expression in human HA22T cells at 1 uM incubated for 24 hrs by Western blotting analysis; assay type: functional, cell-based
SK-HEP1 [16] = test: Inhibition of CIP2A protein expression in human SKHEP1 cells by Western blotting analysis; assay type: functional, cell-based
Homo sapiens [17] = species on record: Homo sapiens; test: Activation of PP2A in human PLC5 cells assessed as minimal concentration causing increase in protein phosphatase activity incubated for 24 hrs using phosphopeptide substrate incubated for 10 mins by malachite green-phosphate complex assay; assay type: cell-based
HA22T cell line [18] = test: Induction of apoptosis in human HA22T cells assessed as caspase-9 activation at 0.5 to 4 uM incubated for 48 hrs by Western blotting analysis; assay type: functional, cell-based
Homo sapiens [19] = species on record: Homo sapiens; test: Activation of PP2A in human SKHEP1 cells assessed as increase in protein phosphatase activity at 1 uM incubated for 24 hrs using phosphopeptide substrate incubated for 10 mins by malachite green-phosphate complex assay; assay type: cell-based
SK-HEP1 [20] = test: Inhibition of CIP2A protein expression in human SKHEP1 cells assessed as CIP2A protein expression ratio level at 4 uM by Western blotting analysis (; assay type: functional
HA22T cell line [21] = test: Inhibition of CIP2A protein expression in human HA22T cells by Western blotting analysis; assay type: functional, cell-based
SK-HEP1 [22] = test: Inhibition of PP2A-C protein expression in human SKHEP1 cells at 1 uM incubated for 24 hrs by Western blotting analysis; assay type: functional, cell-based
Homo sapiens [23] = species on record: Homo sapiens; test: Inhibition of PP2A-A protein expression in human PLC5 cells at 1 uM incubated for 24 hrs by Western blotting analysis; assay type: functional, cell-based
SK-HEP1 [24] = test: Inhibition of CIP2A protein expression in human SKHEP1 cells assessed as CIP2A protein expression ratio level at 0.5 uM by Western blotting analysis (Rvb =1); assay type: functional
Homo sapiens [25] = test: Antitumor activity against human PLC5 cells xenografted in mouse assessed as reduction in tumor size at 10 mg/kg dosed for 4 weeks; assay type: functional, organism-based
Homo sapiens [26] = species on record: Homo sapiens; test: Induction of apoptosis in human PLC5 cells assessed as caspase-3 activation at 0.5 to 4 uM incubated for 48 hrs by Western blotting analysis; assay type: functional, cell-based
Hep 3B2 [27] = test: Inhibition of CIP2A protein expression in human Hep3B cells assessed as CIP2A protein expression ratio level at 0.5 uM by Western blotting analysis (Rvb =1); assay type: functional
HA22T cell line [28] = test: Induction of apoptosis in human HA22T cells assessed as induction of DNA fragmentation at 1 uM incubated for 24 hrs by ELISA; assay type: functional, cell-based
HA22T cell line [29] = test: Induction of apoptosis in human HA22T cells >= 2 uM incubated for 48 hrs by annexin-V-FITC staining based by flow cytometry relative to control; assay type: functional
Homo sapiens [30] = species on record: Homo sapiens; test: Inhibition of human CIP2A gene promoter -110/-1 mutant construct activity in human PLC5 cells by luciferase reporter gene assay; assay type: cell-based
SK-HEP1 [31] = test: Inhibition of PP2A-B5 protein expression in human SKHEP1 cells at 1 uM incubated for 24 hrs by Western blotting analysis; assay type: functional, cell-based
[32] = Inhibition of CIP2A protein expression in human PLC5 cells assessed as CIP2A protein expression ratio level at 4 uM by Western blotting analysis (Rvb =1); assay type: functional
Hep 3B2 [33] = test: Inhibition of CIP2A protein expression in human Hep3B cells assessed as CIP2A protein expression ratio level at 1 uM by Western blotting analysis (Rvb =1); assay type: functional
SK-HEP1 [34] = test: Induction of apoptosis in human SKHEP1 cells assessed as induction of PARP cleavage at 0.5 to 4 uM incubated for 48 hrs by Western blotting analysis; assay type: functional, cell-based
Homo sapiens [35] = species on record: Homo sapiens; test: Induction of CIP2A protein degradation in human PLC5 cells incubated for 4 to 24 hrs; assay type: functional, cell-based
[36] = target: T1, Serine/threonine-protein kinase AKT (Homo sapiens); test: Inhibition of Akt phosphorylation at S473 residue in human HA22T cells at 1 uM by Western blotting analysis; assay type: cell-based; conditions: TDE = time-dependent effect
Homo sapiens [37] = species on record: Homo sapiens; test: Induction of apoptosis in human PLC5 cells assessed as induction of PARP cleavage at 2 uM in presence of caspase inhibitor Z-VAD-fmk incubated for 48 hrs by Western blotting analysis; assay type: functional, cell-based
HA22T cell line [38] = test: Inhibition of CIP2A protein expression in human HA22T cells assessed as CIP2A protein expression ratio level at 0.5 uM by Western blotting analysis (Rvb =1); assay type: functional
[39] = target: T1, Serine/threonine-protein kinase AKT (Homo sapiens); test: Inhibition of Akt phosphorylation at S473 residue in human Hep3B cells by Western blotting analysis; assay type: cell-based

With C#Cc1cccc(Nc2nc3ccccc3nc2Nc2cccc(C#C)c2)c1 as the compound, how does the inhibition (Hep 3B2 [1]) read?
The inhibition was “inactive”.

What about the Activity (Homo sapiens [2]) of the same compound?
Its Activity is “inactive”.

What about the inhibition [3] of the same compound?
Its inhibition is “inactive”.

And the Activity (Homo sapiens [4])?
The Activity was “Active”.

And the Activity (Homo sapiens [5])?
Its Activity is “Active”.

And the MEC (Homo sapiens [6])?
The MEC was 100 to 200 nM.

And the Activity (Homo sapiens [7])?
The Activity was “inactive”.

And the Activity (SK-HEP1 [8])?
Its Activity is “Active”.

And the inhibition [9]?
Its inhibition is “Dose-dependent effect”.

What about the Activity (SK-HEP1 [10]) of the same compound?
The Activity was “Dose-dependent effect”.

And the Activity (SK-HEP1 [11])?
Its Activity is “Dose-dependent effect”.

What about the Activity (Homo sapiens [12]) of the same compound?
The Activity was “Dose-dependent effect”.

What about the MEC (Homo sapiens [13]) of the same compound?
The MEC was 100 to 200 nM.

What about the inhibition (Homo sapiens [14]) of the same compound?
Its inhibition is “inactive”.

What about the inhibition (HA22T cell line [15]) of the same compound?
Its inhibition is “inactive”.

What about the inhibition (SK-HEP1 [16]) of the same compound?
The inhibition was “Dose-dependent effect”.

And the MEC (Homo sapiens [17])?
Its MEC is 100 to 200 nM.

And the Activity (HA22T cell line [18])?
Its Activity is “Dose-dependent effect”.

And the Activity (Homo sapiens [19])?
The Activity was “Active”.

What about the Ratio (SK-HEP1 [20]) of the same compound?
Its Ratio is 0.1.

What about the inhibition (HA22T cell line [21]) of the same compound?
The inhibition was “Dose-dependent effect”.

What about the inhibition (SK-HEP1 [22]) of the same compound?
Its inhibition is “inactive”.

And the inhibition (Homo sapiens [23])?
Its inhibition is “inactive”.

And the Ratio (SK-HEP1 [24])?
The Ratio was 0.73.

And the Activity (Homo sapiens [25])?
Its Activity is “Active”.

What about the Activity (Homo sapiens [26]) of the same compound?
Its Activity is “Dose-dependent effect”.

What about the Ratio (Hep 3B2 [27]) of the same compound?
The Ratio was 0.87.

What about the Activity (HA22T cell line [28]) of the same compound?
Its Activity is “Active”.

What about the Activity (HA22T cell line [29]) of the same compound?
The Activity was 50%.

What about the inhibition (Homo sapiens [30]) of the same compound?
The inhibition was “inactive”.

What about the inhibition (SK-HEP1 [31]) of the same compound?
The inhibition was “inactive”.

What about the Ratio [32] of the same compound?
Its Ratio is 0.01.

What about the Ratio (Hep 3B2 [33]) of the same compound?
The Ratio was 0.57.

What about the Activity (SK-HEP1 [34]) of the same compound?
Its Activity is “Dose-dependent effect”.

And the Activity (Homo sapiens [35])?
The Activity was “inactive”.

And the inhibition [36]?
The inhibition was “Tde”.

And the Activity (Homo sapiens [37])?
Its Activity is “inactive”.

And the Ratio (HA22T cell line [38])?
The Ratio was 0.99.

And the inhibition [39]?
The inhibition was “Dose-dependent effect”.
